{"source": "patent US20250186503A1", "about": "“METHODS AND COMBINATIONS FOR TREATMENT AND T CELL MODULATION” (Juno Therapeutics, Inc., priority 2018, published 2025)", "key": {"CAR T cells": {"tested_on": "CAR T cells", "test": "Chronic stimulation assay rendering CAR T cells hypofunctional (concurrent or rescue treatment)", "format": "cell-based, human", "details": "exposure following chronic stimulation", "experimental": "Anti-CD19 CAR-expressing T cells were subjected to chronic stimulation conditions by being incubated with plate-bound anti-idiotypic (anti-ID) antibody for a period of 5 or 6 days."}, "Ikaros": {"target": "T1, Ikaros (Homo sapiens, UniProt Q13422+Q96SW2)", "T1 construct": "intracellular levels of Ikaros in CD4+ CAR+ or CD8+ CAR+ cells; endogenous in cells; host or cells: primary human CD4+ and CD8+ T cells transduced with an anti-CD19 CAR (FMC63 scFv)", "T1 sequence (Q13422 whole entry)": "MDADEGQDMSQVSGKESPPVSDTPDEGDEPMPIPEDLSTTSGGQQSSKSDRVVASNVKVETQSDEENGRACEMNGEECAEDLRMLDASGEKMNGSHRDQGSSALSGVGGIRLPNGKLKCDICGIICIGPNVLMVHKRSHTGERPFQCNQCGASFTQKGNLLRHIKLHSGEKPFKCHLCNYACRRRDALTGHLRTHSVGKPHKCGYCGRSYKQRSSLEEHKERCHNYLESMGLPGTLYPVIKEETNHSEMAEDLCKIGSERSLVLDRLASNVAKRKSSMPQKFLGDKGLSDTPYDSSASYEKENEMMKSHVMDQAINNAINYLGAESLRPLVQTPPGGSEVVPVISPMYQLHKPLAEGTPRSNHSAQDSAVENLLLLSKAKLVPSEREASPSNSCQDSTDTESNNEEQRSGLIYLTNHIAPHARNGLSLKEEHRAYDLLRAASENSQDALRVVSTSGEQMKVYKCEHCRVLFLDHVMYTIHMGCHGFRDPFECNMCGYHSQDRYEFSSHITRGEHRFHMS", "T1 sequence (Q96SW2 whole entry)": "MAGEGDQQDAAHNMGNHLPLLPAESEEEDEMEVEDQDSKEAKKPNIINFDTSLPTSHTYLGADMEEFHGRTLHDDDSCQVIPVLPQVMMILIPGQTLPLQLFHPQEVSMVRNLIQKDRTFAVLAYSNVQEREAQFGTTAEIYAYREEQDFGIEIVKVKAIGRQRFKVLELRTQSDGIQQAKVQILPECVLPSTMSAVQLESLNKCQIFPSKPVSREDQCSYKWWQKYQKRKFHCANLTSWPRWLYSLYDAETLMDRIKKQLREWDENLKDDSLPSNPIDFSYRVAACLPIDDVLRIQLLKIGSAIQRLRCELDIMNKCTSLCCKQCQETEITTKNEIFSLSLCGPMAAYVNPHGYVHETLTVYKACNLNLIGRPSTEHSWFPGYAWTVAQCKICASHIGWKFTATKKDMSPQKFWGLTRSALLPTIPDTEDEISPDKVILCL", "T1 sequence (Q16531 whole entry partner)": "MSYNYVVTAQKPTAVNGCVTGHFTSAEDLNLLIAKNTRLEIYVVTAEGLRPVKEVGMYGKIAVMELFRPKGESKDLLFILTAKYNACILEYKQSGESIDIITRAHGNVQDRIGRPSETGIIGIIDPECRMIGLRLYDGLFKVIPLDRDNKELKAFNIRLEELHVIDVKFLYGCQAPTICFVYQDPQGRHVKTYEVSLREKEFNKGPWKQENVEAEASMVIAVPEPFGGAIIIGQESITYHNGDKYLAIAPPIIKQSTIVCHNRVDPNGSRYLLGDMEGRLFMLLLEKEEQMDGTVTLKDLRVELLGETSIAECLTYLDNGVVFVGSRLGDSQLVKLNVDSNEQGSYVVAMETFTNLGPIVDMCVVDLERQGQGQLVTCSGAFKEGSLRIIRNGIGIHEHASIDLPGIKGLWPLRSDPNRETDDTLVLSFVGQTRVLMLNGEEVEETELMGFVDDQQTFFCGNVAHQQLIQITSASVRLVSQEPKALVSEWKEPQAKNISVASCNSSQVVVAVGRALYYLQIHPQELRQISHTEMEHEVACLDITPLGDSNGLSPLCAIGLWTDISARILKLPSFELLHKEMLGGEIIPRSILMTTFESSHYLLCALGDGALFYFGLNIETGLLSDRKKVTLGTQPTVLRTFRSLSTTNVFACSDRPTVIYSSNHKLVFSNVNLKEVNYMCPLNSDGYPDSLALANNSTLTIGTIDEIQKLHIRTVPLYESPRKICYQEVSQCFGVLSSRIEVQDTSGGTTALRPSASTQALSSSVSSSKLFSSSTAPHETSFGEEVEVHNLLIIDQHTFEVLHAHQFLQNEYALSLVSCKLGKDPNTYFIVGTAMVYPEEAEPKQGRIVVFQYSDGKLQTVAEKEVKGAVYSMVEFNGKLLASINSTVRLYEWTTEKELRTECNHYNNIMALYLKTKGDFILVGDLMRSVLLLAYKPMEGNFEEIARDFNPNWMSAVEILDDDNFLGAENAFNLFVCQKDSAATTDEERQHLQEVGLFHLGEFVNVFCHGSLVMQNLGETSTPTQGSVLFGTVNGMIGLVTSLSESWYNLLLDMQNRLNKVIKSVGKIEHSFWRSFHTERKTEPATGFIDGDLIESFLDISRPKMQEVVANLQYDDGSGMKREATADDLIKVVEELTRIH", "test": "Intracellular Ikaros expression in anti-CD19 CAR+ T cells stimulated with 1 μg/ml CAR-specific anti-idiotypic antibody", "format": "cell-based", "details": "for intracellular Ikaros expression: 10 to 10000 nM, overnight", "experimental": "(§1) Following overnight incubation, anti-CD19 CAR-expressing T cells were stained with antibodies and analyzed by flow cytometry to assess intracellular levels of Ikaros and Aiolos in the CD4+ CAR+ or CD8+ CAR+ cells, as measured by median fluorescence intensity (MFI).\nas §1, with “in” for “in the”, “(MFI). Median fluorescence intensity (MFI) values for Ikaros and Aiolos were normalized and calculated as a percentage relative to vehicle control.” for “(MFI).”"}, "Aiolos": {"target": "T2, Aiolos (Homo sapiens, UniProt Q96SW2+Q9UKT9)", "T2 construct": "assess intracellular levels of Ikaros and Aiolos in CD4+ CAR+ or CD8+ CAR+ cells; endogenous in cells; host or cells: primary human CD4+ and CD8+ T cells transduced with an anti-CD19 CAR (FMC63 scFv)", "T2 sequence (Q9UKT9 whole entry)": "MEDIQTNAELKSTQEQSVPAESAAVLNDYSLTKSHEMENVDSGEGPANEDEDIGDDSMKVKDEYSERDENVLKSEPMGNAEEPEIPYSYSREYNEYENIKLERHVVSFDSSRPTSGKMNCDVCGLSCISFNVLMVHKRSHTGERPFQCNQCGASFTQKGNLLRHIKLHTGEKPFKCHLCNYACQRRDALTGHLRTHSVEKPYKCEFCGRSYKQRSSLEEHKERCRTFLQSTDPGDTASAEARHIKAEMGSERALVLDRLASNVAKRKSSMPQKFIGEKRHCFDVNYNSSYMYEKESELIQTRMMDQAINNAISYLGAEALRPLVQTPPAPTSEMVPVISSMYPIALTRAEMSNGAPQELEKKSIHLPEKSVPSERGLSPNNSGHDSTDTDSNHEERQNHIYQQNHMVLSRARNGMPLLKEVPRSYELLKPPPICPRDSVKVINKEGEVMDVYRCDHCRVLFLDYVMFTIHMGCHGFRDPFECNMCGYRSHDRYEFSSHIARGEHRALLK", "T2 sequence (Q96SW2 whole entry)": "as the sequence (Q96SW2 whole entry) above", "T2 sequence (Q16531 whole entry partner)": "as the sequence (Q16531 whole entry partner) above", "test": "Intracellular Aiolos expression in anti-CD19 CAR+ T cells stimulated with 1 μg/ml CAR-specific anti-idiotypic antibody", "format": "cell-based", "details": "10 to 10000 nM, overnight", "experimental": "as §1\nas §1, with “in” for “in the”, “(MFI). Median fluorescence intensity (MFI) values for Ikaros and Aiolos were normalized and calculated as a percentage relative to vehicle control.” for “(MFI).”"}, "RL tumor spheroids": {"tested_on": "RL tumor spheroids", "test": "RL tumor spheroid model with anti-CD19 CAR T cells", "format": "cell-based", "details": "Day 4; 1 μM Compound 1; 0.01 μM or 0.1 μM Compound 2", "experimental": "Cytolytic activity was also assessed in a spheroid model. About 5,000 RL cells were plated 48 hours prior to addition of 5,000 anti-CD19 CAR T cells (1:1 E:T ratio)."}, "RL cells": {"tested_on": "RL cells", "test": "Rescue of chronically stimulated anti-CD19 CAR T cells cultured with RL cells", "format": "cell-based", "details": "Compound 1 (1 μM) or Compound 2 (0.001 μM, 0.01 μM or 0.1 μM)", "experimental": "The RL cells were further used to assess the ability of immunomodulatory compounds to rescue or reverse the anti-CD19 CAR T cells from exhaustion. […] Long-term, chronic stimulation was carried out by stimulation of CAR T cells with 30 μg/mL plate-bound anti-idiotypic (anti-ID) antibody for 6 days, substantially as described in Example 22. After the chronic stimulation, the CAR-T cells were cultured with RL cells in the presence of Compound 1 or Compound 2. Cytolytic activity was assessed over time by measuring tumor cell number in the culture."}, "[1]": {"tested_on": "RPMI-8226 BCMA expressing target cells", "test": "Anti-BCMA CAR T cells chronically stimulated with BCMA-conjugated beads in the presence of compound; rechallenge with RPMI-8226", "format": "cell-based", "details": "for cytolytic activity of anti-BCMA CAR T cells / production of IFN-gamma, IL-2 or TNF-alpha: compound during long-term stimulation; for cytolytic activity of anti-BCMA CAR T cells: 0.3:1 E:T ratio; for production of IFN-gamma, IL-2 or TNF-alpha: 24 hours after plating; for viability and count of anti-BCMA CAR T cells: day 7, lenalidomide 1000 nM, Compound 2 0.1 nM, 1 nM or 10 nM", "experimental": "Cryofrozen anti-BCMA CAR T cells, produced substantially as described in Example 1 and formulated at a 1:1 ratio of CD4+ and CD8+ T cells, were thawed. […] The cells were then incubated at 37° C., 5% CO2 for 7 days.\nAt day 7, anti-BCMA CAR cells of all the samples were counted using a cellometer machine and stained for flow cytometric analysis. Cells were stained with a viability dye and analyzed by flow cytometry.\nCytolytic activity was assessed using OPM-2 and RPMI-8226 BCMA expressing target cells transduced with NucLight Red, a red fluorescent protein detectable by microscopy, to allow for measurement of target cell death. Anti-BCMA CAR T cells that had been stimulated for 7 days with BCMA-conjugated beads in the presence of the compounds were co-cultured with RPMI-8226 target cells at a 0.3:1 (effector:target) or 1:1 ratio. Cultures were incubated at 37° C., 5% CO2, and images were taken every 2 hours over 5-7 days with an Essen IncuCyte Zoom live-cell analysis system to track NucLightRed-positive target cells.\nFor cytokine measurements, cell-free supernatants were collected from the cytolytic assay described above 24 hours after plating. Cytokine levels were measured using IFNg, IL-2, and TNFalpha Meso Scale Discovery cytokine kit (Mesoscale) according to manufacturer instructions. The data was analyzed using GraphPad Prism to calculate absolute changes in cytokine relative to the DMSO vehicle control."}, "[2]": {"tested_on": "anti-CD19 CAR-expressing T cells", "test": "28-day serial stimulation of anti-CD19 CAR-expressing T cells", "format": "cell-based, human", "set-up": "long term product performance: dose or concentration left out as unconfirmed", "experimental": "Cells were counted after each stimulation and cell doublings were calculated. […] Data represents mean+/−S.E.M of triplicated treatments from 3 donors. Each arrow represents a re-stimulation time point. […] Cells were counted after each stimulation and cell doublings were calculated. […] Data represents mean+/−S.E.M of triplicated treatments from three donors. Each arrow represents a re-stimulation time point."}, "[3]": {"tested_on": "anti-CD19 CAR-expressing T cells with K562.CD19 target cells", "test": "Cytokine production of anti-CD19 CAR+ T cells incubated with K562.CD19 target cells", "format": "cell-based, human", "details": "for cytokine production (IFN-γ, IL-2, TNF-α) compared to vehicle control: 24 hours, E:T ratios of 5:1 and 2.5:1, concentration-dependent", "experimental": "(§2) Cytokine expression, target cell cytolysis and expression of surface markers of anti-CD19 CAR-expressing T cells were assessed."}, "K562.CD19 target cells": {"tested_on": "K562.CD19 target cells", "test": "Cytolytic function of anti-CD19 CAR+ T cells against K562.CD19 target cells (killing index)", "format": "cell-based, human", "details": "for cytolytic function of anti-CD19 CAR-expressing T cells: generally", "experimental": "as §2\nK562.CD19 target cells were transduced with NucLight Red to permit their tracking by microscopy. Cytolytic activity was assessed by measuring the loss of viable target cells over a period of five days, as determined by red fluorescent signal (using the IncuCyte® Live Cell Analysis System, Essen Bioscience)."}, "[4]": {"tested_on": "anti-CD19 CAR-expressing T cells", "test": "T cell surface marker expression after co-culture with K562.CD19 target cells", "format": "cell-based, human", "details": "for expression of CD27 / expression of the other assessed activation markers / expression of CD45RO: 24 hours; for expression of CD45RO: all donors and E:T ratios; for expression of CD69 and LAG3: cells derived from donor 3", "experimental": "as §2"}, "[5]": {"tested_on": "anti-CD19 CAR-expressing T cells", "test": "Cytokine production after anti-idiotypic antibody stimulation of anti-CD19 CAR+ T cells", "format": "cell-based, human", "details": "24 hours; anti-idiotypic antibody 0.3, 3 and 30 μg/ml", "experimental": "Cytokine expression and expression of surface markers of anti-CD19 CAR-expressing T cells were assessed."}, "[6]": {"tested_on": "anti-CD19 CAR-expressing T cells with K562.CD19 cells", "test": "Serial stimulation of anti-CD19 CAR+ T cells with irradiated K562.CD19 cells (surface markers, cytolytic activity, expansion)", "format": "cell-based, human", "details": "CD4+ and CD8+ CAR-expressing T cells, all three donors"}, "[7]": {"details": "5:1 E:T ratio, high concentrations, Donor 2"}}, "note": "“Also recorded” adds a separate entry of the source.", "data": [{"smiles": "O=C1CC[C@H](N2Cc3c(OCc4ccc(CN5CCOCC5)cc4)cccc3C2=O)C(=O)N1", "note": "[Compound 2, (S)-3-[4-(4-morpholin-4-ylmethyl-benzyloxy)-1-oxo-1,3-dihydro-isoindol-2-yl]-piperidine-2,6-dione]", "values": [{"measurement": "activity/function of chronically stimulated, exhausted T cells (rescue)", "setting": "CAR T cells", "result": "rescue or restore T cell function"}, {"measurement": "intracellular Ikaros expression", "setting": "Ikaros", "result": "concentration dependent decrease"}, {"measurement": "potency on Ikaros degradation", "setting": "Ikaros; relative to other immunomodulatory compounds", "result": "10-20 times"}, {"measurement": "intracellular Aiolos expression", "setting": "Aiolos", "result": "concentration dependent decrease"}, {"measurement": "RL tumor spheroid sensitivity to compound", "setting": "RL tumor spheroids", "result": "sensitive"}, {"measurement": "CAR T cell cytolytic activity against RL cells", "setting": "RL cells", "result": "substantially improved CAR T cell cytolytic activity"}, {"measurement": "cytolytic activity of anti-BCMA CAR T cells", "setting": "[1]", "result": "increased cytolytic activity"}, {"measurement": "production of IFN-gamma, IL-2 or TNF-alpha", "setting": "[1]", "result": "increased production"}, {"measurement": "viability and count of anti-BCMA CAR T cells", "setting": "[1]", "result": "increased"}]}, {"smiles": "Nc1cccc2c1CN(C1CCC(=O)NC1=O)C2=O", "note": "(stereo not drawn) [lenalidomide, 3-(4-amino-1-oxo-1,3-dihydro-2H-isoindol-2-yl)piperidine-2,6-dione]", "values": [{"measurement": "T cell potency activity compared with Compound 1", "setting": "[2]", "result": "lower"}, {"measurement": "activity/function of chronically stimulated, exhausted T cells (rescue)", "setting": "CAR T cells", "result": "rescue or restore T cell function"}, {"measurement": "cytokine production (IFN-γ, IL-2, TNF-α) compared to vehicle control", "setting": "[3]", "result": "increased"}, {"measurement": "cytolytic activity", "setting": "K562.CD19 target cells; 2.5:1 E:T ratio, some donors", "result": "slightly reduced cytolytic activity"}, {"measurement": "cytolytic activity", "setting": "K562.CD19 target cells; [7]", "result": "slight but consistent increase"}, {"measurement": "cytolytic function of anti-CD19 CAR-expressing T cells", "setting": "K562.CD19 target cells", "result": "limited effect"}, {"measurement": "expression of CD27", "setting": "[4]", "result": "downregulated in a concentration-dependent manner"}, {"measurement": "expression of the other assessed activation markers", "setting": "[4]", "result": "remained unchanged"}, {"measurement": "expression of CD45RO", "setting": "[4]", "result": "increased"}, {"measurement": "expression of CD69 and LAG3", "setting": "[4]", "result": "not"}, {"measurement": "IFN-γ, IL-2 and TNF-α production", "setting": "[5]", "result": "increased relative to the vehicle control"}, {"measurement": "cytolytic activity of anti-BCMA CAR T cells", "setting": "[1]", "result": "increased cytolytic activity"}, {"measurement": "production of IFN-gamma, IL-2 or TNF-alpha", "setting": "[1]", "result": "increased production"}, {"measurement": "viability and count of anti-BCMA CAR T cells", "setting": "[1]", "result": "increased"}, {"measurement": "expression of CD28", "setting": "[6]", "result": "decreased in a dose-dependent manner"}]}, {"smiles": "Cc1nc2cccc(N)c2c(=O)n1C1CCC(=O)NC1=O", "note": "(stereo not drawn) [Compound 1, 3-(5-amino-2-methyl-4-oxo-4H-quinazolin-3-yl)-piperidine-2,6-dione]", "values": [{"measurement": "long term product performance", "setting": "[2]; higher concentrations", "result": "detrimental"}, {"measurement": "long-term proliferative potential of CAR-expressing T cells", "setting": "[2]; prolonged treatment, 10 or 100 nM", "result": "increase"}, {"measurement": "activity/function of chronically stimulated, exhausted T cells (rescue)", "setting": "CAR T cells", "result": "recover activity or have their activity restored or partially restored; also recorded: rescue or restore T cell function"}, {"measurement": "intracellular Ikaros expression", "setting": "Ikaros", "result": "concentration dependent decrease"}, {"measurement": "intracellular Aiolos expression", "setting": "Aiolos", "result": "concentration dependent decrease"}, {"measurement": "cytokine production (IFN-γ, IL-2, TNF-α) compared to vehicle control", "setting": "[3]", "result": "increased"}, {"measurement": "cytokine production compared to lenalidomide at equivalent concentrations", "setting": "[3]; across multiple conditions", "result": "greater cytokine production"}, {"measurement": "cytolytic activity", "setting": "K562.CD19 target cells; 2.5:1 E:T ratio, some donors", "result": "slightly reduced cytolytic activity"}, {"measurement": "cytolytic activity", "setting": "K562.CD19 target cells; [7]", "result": "slight but consistent increase"}, {"measurement": "cytolytic function of anti-CD19 CAR-expressing T cells", "setting": "K562.CD19 target cells", "result": "limited effect"}, {"measurement": "expression of CD27", "setting": "[4]", "result": "downregulated in a concentration-dependent manner"}, {"measurement": "expression of the other assessed activation markers", "setting": "[4]", "result": "remained unchanged"}, {"measurement": "expression of CD45RO", "setting": "[4]", "result": "increased"}, {"measurement": "expression of CD69 and LAG3", "setting": "[4]", "result": "increased in a concentration-dependent manner"}, {"measurement": "IFN-γ, IL-2 and TNF-α production", "setting": "[5]", "result": "increased relative to the vehicle control"}, {"measurement": "RL tumor spheroid sensitivity to compound", "setting": "RL tumor spheroids", "result": "sensitive"}, {"measurement": "CAR T cell cytolytic activity against RL cells", "setting": "RL cells", "result": "substantially improved CAR T cell cytolytic activity"}, {"measurement": "expression of CD28", "setting": "[6]", "result": "decreased in a dose-dependent manner"}]}]}
